Measured values reported in US10047083B2, “Dihydropyrimidinoisoquinolinones and pharmaceutical compositions thereof for the treatment of inflammatory disorders” (GALAPAGOS NV, priority 2011, dated 2018).

These compounds were tested on human neutrophils (assay: Human neutrophil migration assay (embelin-induced)). Conditions: neutrophils from human buffy coat, 30 min compound pre-incubation, migration towards embelin at EC80 for 1 h, ATPlite readout, read-out: human neutrophil migration inhibition (Neutrophils).
Format: cell-based
Protocol: 2. Cellular Assays 2.1. Human Neutrophil Migration Assay
The effect of agonists or antagonists for GPR84 can therefore be assayed in a neutrophil migration test. In the neutrophil migration assay, neutrophils, freshly isolated from buffy coats from human volunteers, are treated with a compound for 30 minutes. Subsequently, the neutrophils are transferred to the upper wells of a Corning HTS transwell 96 permeable support system, of which the lower wells are filled with a embelin solution at EC80 (concentration which gives 80% of the activity of GPR84). After 1 h of incubation, migration of the neutrophils towards embelin in the lower compartment can be quantified by measuring the ATP-content of the lower wells using the ATPlite luminescence ATP detection assay system (Perkin Elmer, Cat. No.: 436110).
A human buffy coat is diluted with an equal volume of ice cold DPBS. 20 mL of the diluted buffy coat is gently mixed with 4 mL of ACD buffer (140 mM citric acid, 200 mM sodium citrate and 220 mM dextrose). Then, 12 mL of the 6% dextran/0.9% NaCl solution (15 g dextran T2000 and 2.25 g NaCl dissolved in 250 mL H2O) is added to the mixture and the samples are inverted gently up to 20 times. The total volume was transferred to a new recipient and incubated at room temperature for 1 h for complete separation of the two phases to occur. The yellowish supernatant is then transferred to a clean centrifugation tube and centrifuged for 12 minutes at 1300 rpm and 4° C. After centrifugation, the supernatant is discarded and the remaining cell pellet is rapidly resuspended in 12 mL of ice-cold H2O for red blood cell lysis to occur. After 20 seconds, 4 mL of ice-cold 0.6 M KCl is added. Samples are mixed carefully and centrifuged for 6 minutes at 1300 rpm, 4° C. The supernatant is discarded and the red blood cell lysis procedure is repeated one more time. Subsequently, the cell pellet is resuspended in 4 mL of DPBS and layered over 5 mL of Lymphoprep (Nycomed Pharma, Cat. No.: 1114545) in a 15 mL centrifuge tube. After centrifugation for 12 min at 1300 rpm, 4° C., the supernatant is removed and the cell pellet, containing the neutrophils, is resuspended in 25 mL chemotaxis buffer (RPMI 1640 medium, supplemented with 10 mM HEPES; freshly made for each experiment)
A cell suspension of 8.9×10^6 cells per milliliter is prepared. 20 μL of compound solution in chemotaxis buffer is added to 180 μL cell suspension. The mixture is incubated at 37° C. for 30 minutes with intermediate resuspension of the cells after 15 minutes. Following this, 70 μL cell suspension is transferred to the upper compartment of a Corning HTS transwell 96 permeable support system with 5.0 μm pore size polycarbonate membrane (Corning, Cat. No.: 3387). The receiver well of the transwell system is then filled with 200 μL chemotaxis buffer containing compound and chemotactic agent (embelin). After incubation at 37° C. in 5% CO2 for 1 h, the upper plate of the transwell system is removed and the cell suspension in the receiver plate is transferred to a 96-well V-bottom plate. 50 μL of DPBS is added to the receiver plate to prevent remaining cells from drying out. The V-bottom plate is centrifuged for 6 minutes at 1500 rpm. The supernatant is removed and the cells are resuspended in 50 μL DPBS. The cells are then transferred back to the receiver plate of the transwell system. After this, 100 μL ATPlite solution (Perkin Elmer, Cat. No: 436110) was added to the cells. The plate is incubated for 10 minutes in the dark, while shaking. […] of cell lysate is then transferred to a white 96-well plate and luminescence is measured. The detected luminescent signal is considered as linearely related to the number of cells having migrated from the upper well to the receiver well.
Compound `Cn1ccc2cc(-c3ccc4c(c3)CCn3c-4cc(OCC4COCCO4)nc3=O)ccc21` (stereo not drawn) [Compound 34, 2-([1,4]dioxan-2-ylmethoxy)-9-(1-methyl-1H-indol-5-yl)-6,7-dihydro-pyrimido[6,1-a]isoquinolin-4-one] has an IC50 of 0.01 to 100 nM. For `COc1ccccc1-c1ccc2c(c1)CCn1c-2cc(OCC2COCCO2)nc1=O` (stereo not drawn) [Compound 23, 2-([1,4]dioxan-2-ylmethoxy)-9-(2-methoxy-phenyl)-6,7-dihydro-pyrimido[6,1-a]isoquinolin-4-one], the IC50 was 101 to 500 nM. `O=c1nc(OCC2COCCO2)cc2n1CCc1cc(C#CC3CC3)ccc1-2` (stereo not drawn) [Compound 30, 9-cyclopropylethynyl-2-([1,4]dioxan-2-ylmethoxy)-6,7-dihydro-pyrimido[6,1-a]isoquinolin-4-one] gave an IC50 of 0.01 to 100 nM. `CC(O)(C#Cc1ccc2c(c1)CCn1c-2cc(OCC2COCCO2)nc1=O)c1ccccc1` (stereo not drawn) [Compound 92, 2-([1,4]dioxan-2-ylmethoxy)-9-(3-hydroxy-3-phenyl-but-1-ynyl)-6,7-dihydro-pyrimido[6,1-a]isoquinolin-4-one] was tested, and the IC50 was 0.01 to 100 nM. Work on `O=c1nc(OCC2COCCO2)cc2n1CCc1cc(-c3ccc4[nH]ccc4c3)ccc1-2` (stereo not drawn) [Compound 22, 2-([1,4]dioxan-2-ylmethoxy)-9-(1H-indol-5-yl)-6,7-dihydro-pyrimido[6,1-a]isoquinolin-4-one] yielded an IC50 of 0.01 to 100 nM. In the case of `CC(C)(C)c1nc(COc2ccc3c(c2)CCn2c-3cc(OCC3COCCO3)nc2=O)no1` (stereo not drawn) [Compound 17, 9-(5-tert-butyl-[1,2,4]oxadiazol-3-ylmethoxy)-2-([1,4]dioxan-2-ylmethoxy)-6,7-dihydro-pyrimido[6,1-a]isoquinolin-4-one], the IC50 is reported as 0.01 to 100 nM.

Each compound was assayed against T1, GPR84 (Homo sapiens, UniProt Q9NQS5) (assay: GTPγS binding assay (GPR84)). Conditions: membranes from stable cell line over expressing GPR84; 3,3′ di indolylmethane at EC80.
T1 construct: expressed in transfected cells; membranes used
T1 sequence (Q9NQS5 whole entry): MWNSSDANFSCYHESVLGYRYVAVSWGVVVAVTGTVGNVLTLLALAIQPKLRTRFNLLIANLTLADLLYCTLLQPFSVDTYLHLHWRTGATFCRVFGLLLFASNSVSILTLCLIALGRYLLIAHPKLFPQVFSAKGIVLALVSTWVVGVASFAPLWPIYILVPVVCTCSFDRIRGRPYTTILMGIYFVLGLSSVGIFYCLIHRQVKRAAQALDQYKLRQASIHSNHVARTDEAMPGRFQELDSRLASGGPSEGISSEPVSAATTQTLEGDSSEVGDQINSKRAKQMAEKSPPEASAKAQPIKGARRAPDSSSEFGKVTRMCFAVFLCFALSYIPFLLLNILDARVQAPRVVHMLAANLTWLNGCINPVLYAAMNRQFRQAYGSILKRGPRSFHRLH
Format: biochemical
Protocol: 1.1. Cell Based Assay: GTp-γS Binding Assay.
The following assay can be used for determination of GPR84 activation.
The assay is performed in a 96 well plate where the following reagents are added. […] In a last step, 30 μL of a mixture consisting of membranes-GTPγS-SpA beads is added [mixture consists of 20 μg/well membranes derived from stable cell line over expressing GPR84 (membranes are pre-incubated with 0.1 μM GDP for 15 min at 4° C.), 0.1 nM [^35S]GTPγS (Perkin Elmer, NEG030) and 0.5 mg/well PVT-WGA SpA beads (Perkin Elmer, RPNQ0001)]. All components are diluted in assay buffer containing 20 mM HEPES pH 7.4; 5 mM MgCl2; 250 mM NaCl; 0.05% BSA; 75 ug/mL saponin. Reactions are incubated for 90 min at room temperature followed by centrifugation at 2000 rpm during 15 min. Plates are read on a Topcount reader (Perkin Elmer) immediately after centrifugation (readout time, 1 min/well).
With `O=c1nc(OC[C@@H]2COCCO2)cc2n1CCc1cc(NC3CCCCC3)ccc1-2` [Compound 145, 9-cyclohexylamino-2-((S)-1-[1,4]dioxan-2-ylmethoxy)-6,7-dihydro-pyrimido[6,1-a]isoquinolin-4-one] the IC50 was 101 to 500 nM. Work on `CCCn1cc(-c2ccc3c(c2)CCn2c-3cc(OCC3COCCO3)nc2=O)cn1` (stereo not drawn) [Compound 101, 2-([1,4]dioxan-2-ylmethoxy)-9-(1-propyl-1H-pyrazol-4-yl)-6,7-dihydro-pyrimido[6,1-a]isoquinolin-4-one] yielded an IC50 of 101 to 500 nM. With `Cc1nc(COc2ccc3c(c2)CCn2c-3cc(OCC3COCCO3)nc2=O)no1` (stereo not drawn) [Compound 79, 2-([1,4]dioxan-2-ylmethoxy)-9-(5-methyl-[1,2,4]oxadiazol-3-ylmethoxy)-6,7-dihydro-pyrimido[6,1-a]isoquinolin-4-one] the IC50 was 101 to 500 nM. In the case of `NC(=O)c1ccc(F)c(-c2ccc3c(c2)CCn2c-3cc(OCC3COCCO3)nc2=O)c1` (stereo not drawn) [Compound 50, 3-[2-([1,4]dioxan-2-ylmethoxy)-4-oxo-6,7-dihydro-4H-pyrimido[6,1-a]isoquinolin-9-yl]-4-fluoro-benzamide], the IC50 is reported as 101 to 500 nM. `O=c1nc(OCC2COCCO2)cc2n1CCc1cc(C#Cc3ccncc3)ccc1-2` (stereo not drawn) [Compound 53, 2-([1,4]dioxan-2-ylmethoxy)-9-pyridin-4-ylethynyl-6,7-dihydro-pyrimido[6,1-a]isoquinolin-4-one] was tested, and the IC50 was 101 to 500 nM. Compound `CC(C)C(O)CCc1ccc2c(c1)CCn1c-2cc(OC[C@@H]2COCCO2)nc1=O` (stereo partly drawn) [Compound 127, 2-((S)-1-[1,4]dioxan-2-ylmethoxy)-9-(3-hydroxy-4-methyl-pentyl)-6,7-dihydro-pyrimido[6,1-a]isoquinolin-4-one] has an IC50 of 0.01 to 100 nM. Work on `O=c1nc(OCC2COCCO2)cc2n1CCc1cc(C#CCCO)ccc1-2` (stereo not drawn) [Compound 45, 2-([1,4]dioxan-2-ylmethoxy)-9-(4-hydroxy-but-1-ynyl)-6,7-dihydro-pyrimido[6,1-a]isoquinolin-4-one] yielded an IC50 of 501 to 1000 nM. In the case of `CC(C)(C)C(O)CCc1ccc2c(c1)CCn1c-2cc(OC[C@@H]2COCCO2)nc1=O` (stereo partly drawn) [Compound 146, 2-((S)-1-[1,4]dioxan-2-ylmethoxy)-9-(3-hydroxy-4,4-dimethyl-pentyl)-6,7-dihydro-pyrimido[6,1-a]isoquinolin-4-one], the IC50 is reported as 0.01 to 100 nM. In the case of `CCc1nc(COc2ccc3c(c2)CCn2c-3cc(OCC3COCCO3)nc2=O)no1` (stereo not drawn) [Compound 78, 2-([1,4]dioxan-2-ylmethoxy)-9-(5-ethyl-[1,2,4]oxadiazol-3-ylmethoxy)-6,7-dihydro-pyrimido[6,1-a]isoquinolin-4-one], the IC50 is reported as 0.01 to 100 nM. In the case of `COc1ccc(-c2ccc3c(c2)CCn2c-3cc(OCC3COCCO3)nc2=O)c(OC)n1` (stereo not drawn) [Compound 70, 9-(2,6-dimethoxy-pyridin-3-yl)-2-([1,4]dioxan-2-ylmethoxy)-6,7-dihydro-pyrimido[6,1-a]isoquinolin-4-one], the IC50 is reported as 0.01 to 100 nM. In the case of `COCCOc1ccc2c(c1)CCn1c-2cc(OC[C@@H]2COCCO2)nc1=O` [Compound 129, 2-((S)-1-[1,4]dioxan-2-ylmethoxy)-9-(2-methoxy-ethoxy)-6,7-dihydro-pyrimido[6,1-a]isoquinolin-4-one], the IC50 is reported as 101 to 500 nM. Compound `Cc1cc(-c2ccc3c(c2)CCn2c-3cc(OCC3COCCO3)nc2=O)ccn1` (stereo not drawn) [Compound 65, 2-([1,4]dioxan-2-ylmethoxy)-9-(2-methyl-pyridin-4-yl)-6,7-dihydro-pyrimido[6,1-a]isoquinolin-4-one] has an IC50 of 501 to 1000 nM. In the case of `O=c1nc(OCC2COCCO2)cc2n1CCc1cc(C#CC(O)c3cccnc3)ccc1-2` (stereo not drawn) [Compound 108, 2-([1,4]dioxan-2-ylmethoxy)-9-(3-hydroxy-3-pyridin-3-yl-prop-1-ynyl)-6,7-dihydro-pyrimido[6,1-a]isoquinolin-4-one], the IC50 is reported as 0.01 to 100 nM. `O=c1nc(OCC2COCCO2)cc2n1CCc1cc(C#CC3CCCCC3)ccc1-2` (stereo not drawn) [Compound 82, 9-cyclohexylethynyl-2-([1,4]dioxan-2-ylmethoxy)-6,7-dihydro-pyrimido[6,1-a]isoquinolin-4-one] gave an IC50 of 0.01 to 100 nM. Work on `CC(C)OCCOc1ccc2c(c1)CCn1c-2cc(OC[C@H]2COCCO2)nc1=O` [Compound 173, 2-((R)-1-[1,4]Dioxan-2-ylmethoxy)-9-(2-isopropoxy-ethoxy)-6,7-dihydro-pyrimido[6,1-a]isoquinolin-4-one] yielded an IC50 of 501 to 1000 nM. For `O=c1nc(OC[C@H]2COCCO2)cc2n1CCc1cc(C#CC3(O)CCOCC3)ccc1-2` [Compound 167, 2-((R)-1-[1,4]Dioxan-2-ylmethoxy)-9-(4-hydroxy-tetrahydro-pyran-4-ylethynyl)-6,7-dihydro-pyrimido[6,1-a]isoquinolin-4-one], the IC50 was 501 to 1000 nM. Compound `N#Cc1ccc(-c2ccc3c(c2)CCn2c-3cc(OCC3COCCO3)nc2=O)cc1` (stereo not drawn) [Compound 6, 4-[2-([1,4]dioxan-2-ylmethoxy)-4-oxo-6,7-dihydro-4H-pyrimido[6,1-a]isoquinolin-9-yl]-benzonitrile] has an IC50 of 101 to 500 nM. For `CCn1cc(-c2ccc3c(c2)CCn2c-3cc(OCC3COCCO3)nc2=O)cn1` (stereo not drawn) [Compound 95, 2-([1,4]dioxan-2-ylmethoxy)-9-(1-ethyl-1H-pyrazol-4-yl)-6,7-dihydro-pyrimido[6,1-a]isoquinolin-4-one], the IC50 was 501 to 1000 nM.
